Data published in PubChem BioAssay (NCI).
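Test compounds were applied to cells in 96-well plates for 48 hours at 5 doses. TGI denotes the concentration required for complete inhibition of growth.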

Assays:
Assay in all cases: NCI tumour cell line growth inhibition, 48 h
MDA-MB-435 = tested on: MDA-MB-435
IGROV1 ovarian = tested on: IGROV1 ovarian
HCT-15 colon = tested on: HCT-15 colon
A498 renal = tested on: A498 renal
SF-268 CNS = tested on: SF-268 CNS
CAKI-1 renal = tested on: CAKI-1 renal
SN12C renal = tested on: SN12C renal
NCI-H460 lung = tested on: NCI-H460 lung
SF-539 CNS = tested on: SF-539 CNS
COLO 205 colon = tested on: COLO 205 colon
NCI/ADR-RES ovarian = tested on: NCI/ADR-RES ovarian
MDA-MB-231 breast = tested on: MDA-MB-231 breast
SK-MEL-5 melanoma = tested on: SK-MEL-5 melanoma
HOP-62 NSCLC = tested on: HOP-62 NSCLC
HCT-116 colon = tested on: HCT-116 colon
MDA-N = tested on: MDA-N
SK-MEL-2 melanoma = tested on: SK-MEL-2 melanoma
EKVX NSCLC = tested on: EKVX NSCLC
RPMI-8226 leukemia = tested on: RPMI-8226 leukemia
PC-3 prostate = tested on: PC-3 prostate

| SMILES | TGI (MDA-MB-435) [µM] | TGI (IGROV1 ovarian) [µM] | TGI (HCT-15 colon) [µM] | TGI (A498 renal) [µM] | TGI (SF-268 CNS) [µM] | TGI (CAKI-1 renal) [µM] | TGI (SN12C renal) [µM] | TGI (NCI-H460 lung) [µM] | TGI (SF-539 CNS) [µM] | TGI (COLO 205 colon) [µM] | TGI (NCI/ADR-RES ovarian) [µM] | TGI (MDA-MB-231 breast) [µM] | TGI (SK-MEL-5 melanoma) [µM] | TGI (HOP-62 NSCLC) [µM] | TGI (HCT-116 colon) [µM] | TGI (MDA-N) [µM] | TGI (SK-MEL-2 melanoma) [µM] | TGI (EKVX NSCLC) [µM] | TGI (RPMI-8226 leukemia) [µM] | TGI (PC-3 prostate) [µM] |
| --- | --- | --- | --- | --- | --- | --- | --- | --- | --- | --- | --- | --- | --- | --- | --- | --- | --- | --- | --- | --- |
| O=C1C=Cc2c(I)sc(I)c21 | 62.1 | 31 | 34 | > 100 | 32.7 | 33.3 | 45.7 | > 100 | 57.2 | 36.8 | 67.7 | 68.8 | > 100 | > 100 | 33.1 | 87.2 | 64.4 | 83.9 | – | – |
| COC1=CC(=O)C2[C@H]3Cc4ccccc4[C@H]3C2(C)C1=O (stereo partly specified) | – | > 100 | > 100 | > 100 | > 100 | > 100 | – | > 100 | > 100 | > 100 | – | – | > 100 | > 100 | – | – | > 100 | > 100 | > 100 | – |
| COc1cc(OC)nc(NC(=O)NS(=O)(=O)c2cccc3ncn(C)c(=O)c23)n1 | > 100 | > 100 | > 100 | > 100 | > 100 | > 100 | > 100 | – | > 100 | > 100 | > 100 | > 100 | > 100 | > 100 | > 100 | > 100 | > 100 | > 100 | > 100 | – |
| CC1(c2nc3cc(Cl)c(Cl)cc3[nH]2)CCC(C(=O)O)C(C)(C)O1 (stereo unspecified) | > 100 | > 100 | > 100 | – | > 100 | > 100 | > 100 | – | > 100 | > 100 | > 100 | > 100 | > 100 | > 100 | > 100 | > 100 | > 100 | > 100 | > 100 | > 100 |
| O=C1NCN(c2ccccc2)C12CCN(CCCSc1ccc(F)cc1)CC2 | 32.6 | 51.3 | > 100 | 42.9 | > 100 | > 91.9 | > 100 | > 100 | 58.5 | 3.24 | > 100 | 25.2 | 17.9 | 97 | 28.5 | – | 43.3 | > 100 | > 100 | > 100 |
| CC1=NN(c2ccccc2)C(=O)C1C(=O)C(=O)Nc1ccc(C)cc1C (stereo unspecified) | – | > 100 | > 100 | > 100 | > 100 | > 100 | > 100 | > 100 | > 100 | > 100 | > 100 | – | > 100 | > 100 | > 100 | – | > 100 | > 100 | > 100 | > 100 |
| COc1ccc(-n2nnnc2C2(Nc3ccccc3)CCN(Cc3ccccc3)CC2)cc1 | 15.4 | 41.2 | 25.1 | 48.7 | – | – | 28 | 42 | 34.6 | 20 | 51 | 32.3 | 24.6 | 56.2 | 26.2 | – | – | 92 | 48.5 | – |
| CCC(/C=C/c1ccccc1)=N\N=C(\C=C\c1ccccc1)CC | – | > 100 | > 100 | > 100 | > 100 | – | > 100 | > 100 | – | > 100 | – | – | > 100 | > 100 | > 100 | – | > 100 | > 100 | > 100 | – |
| COc1ccc(C2C3=C(CCCC3=O)N(c3ccccc3)C3=C2C(=O)CCC3)cc1 | – | > 100 | > 100 | > 100 | > 100 | > 100 | > 100 | > 100 | > 100 | – | > 100 | – | – | – | – | – | – | > 100 | > 100 | > 100 |
| C=CCn1c(=S)sc2c(=O)[nH]cnc21 | – | > 100 | > 100 | > 100 | > 100 | > 100 | > 100 | > 100 | > 100 | > 100 | – | – | > 100 | > 100 | > 100 | – | > 100 | > 100 | – | – |
| N.N.N.N.O=S(=O)([O-])[O-].[Co+3].[OH3+].[OH3+] | – | > 100 | > 100 | > 100 | > 100 | – | > 100 | > 100 | > 100 | > 100 | – | – | > 100 | > 100 | > 100 | – | > 100 | > 100 | > 100 | – |
| CC1OC2OC3C(OCC(O)C3O)OC(=O)[C@]34CCC(C)(C)CC3C3=CCC5[C@@]6(C)C[C@H](O)[C@H](OC7OC(CO)C(O)C(O)C7OC7OC(COC(=O)CC(C)(O)CC(=O)OC1C(O)C2O)C(O)C(O)C7O)[C@@](C)(CO)C6CC[C@@]5(C)[C@]3(C)CC4 (stereo partly specified) | 2.88 | 2.54 | 2.91 | – | 2.97 | 2.74 | 4.37 | 4.45 | 11.9 | 2.98 | 11.9 | 3.11 | 2.34 | 2.69 | 3.39 | 2.73 | 2.85 | – | – | 2.56 |
| Cn1c(C2CC(C)(C)c3c2c2ccccc2n3C)cc2ccccc21 (stereo unspecified) | – | > 304 | > 304 | – | > 304 | > 304 | > 304 | > 304 | > 304 | > 304 | – | – | > 304 | > 304 | > 304 | – | > 304 | > 304 | > 304 | – |
| O=C1CCC2(c3ccc(F)cc3)Nc3ncncc3N12 (stereo unspecified) | > 10 | > 10 | > 10 | – | > 10 | – | > 10 | > 10 | > 10 | – | > 10 | – | – | – | – | > 10 | > 10 | > 10 | – | > 10 |
| CC1(C)OC([C@H](O)CO)C([C@H]2NCCS2)O1 (stereo partly specified) | > 100 | > 100 | > 100 | > 100 | > 100 | > 100 | – | > 100 | – | > 100 | > 100 | > 100 | > 100 | > 100 | > 100 | – | > 100 | > 100 | > 100 | > 100 |
| CCCN1CN(C(C(=O)N[C@@H]2C(=O)N3C(C(=O)O)=C(C)CSC23)c2ccccc2)CSC1=S (stereo partly specified) | – | > 100 | > 100 | > 100 | > 100 | – | > 100 | > 100 | > 100 | > 100 | – | – | > 100 | > 100 | > 100 | – | > 100 | > 100 | > 100 | – |
| COC(=O)/C(Cl)=C1/CC1COCc1ccccc1 (stereo unspecified) | – | > 100 | 35.8 | 96.9 | > 100 | 52.4 | > 100 | > 100 | 49.8 | 44.4 | – | – | 54.7 | > 100 | – | – | 96.9 | > 10 | 58.3 | – |
| O=C1CSc2ccncc2N1 | – | > 100 | > 100 | > 100 | > 100 | > 100 | > 100 | > 100 | > 100 | > 100 | – | – | > 100 | > 100 | > 100 | – | > 100 | > 100 | – | – |
| COC(=O)c1c/c(=N\NC(=O)CC(=O)Nc2ccc(C)cc2)c2ccccc2o1 | – | > 100 | > 100 | > 100 | > 100 | > 100 | > 100 | > 100 | > 100 | > 100 | – | – | > 100 | > 100 | > 100 | – | > 100 | > 100 | > 100 | – |
| O=C(Nc1ccc(F)cc1)c1cc2ccc(O)cc2oc1=Nc1cccc(F)c1 | > 100 | 49.7 | 92.2 | > 100 | > 100 | > 100 | > 100 | > 100 | > 100 | > 100 | > 100 | – | 35.6 | > 100 | > 100 | > 100 | > 100 | 64.4 | > 100 | > 100 |
| COc1ccc(C2S/C(=C\c3cccc([N+](=O)[O-])c3)C(=O)N2NC(=O)Cc2ccccc2)cc1 (stereo unspecified) | – | > 100 | > 100 | > 100 | > 100 | > 100 | > 100 | > 100 | > 100 | > 100 | – | – | > 100 | > 100 | > 100 | – | > 100 | – | > 100 | – |
| CC1CC(=O)NC2CC1C2(C)C (stereo unspecified) | > 100 | > 100 | > 100 | – | > 100 | – | > 100 | > 100 | – | > 100 | – | > 100 | > 100 | – | – | > 100 | > 100 | – | > 100 | – |
| CC(=O)OCC(OC(C)=O)C(OC(C)=O)C(OC(C)=O)C(/C=N\Nc1nc2ccccc2c(=O)[nH]1)OC(C)=O (stereo unspecified) | > 100 | – | > 100 | – | > 100 | > 100 | > 100 | > 100 | > 100 | > 100 | > 100 | > 100 | > 100 | > 100 | > 100 | > 100 | > 100 | > 100 | > 100 | > 100 |
| COc1ccc(C2Oc3c(cccc3OC)C=C2[N+](=O)[O-])cc1 (stereo unspecified) | 10.9 | 9.3 | 5.81 | – | 11.3 | 4.31 | 5.66 | 4.15 | – | 6.95 | 14.5 | 13.6 | 2.93 | 5.8 | 2.55 | 13.1 | – | 25.6 | > 100 | 5.16 |
| Cc1ccccc1Nc1cn(CCOc2ccccc2)c(=O)n(CCOc2ccccc2)c1=O | > 100 | > 100 | > 100 | > 100 | > 100 | > 100 | > 100 | > 100 | – | > 100 | > 100 | – | > 100 | > 100 | > 100 | > 100 | – | > 100 | > 100 | > 100 |
| O=C1/C(=C/c2cccc3ccccc23)Cc2ccccc21 | – | > 100 | > 100 | > 100 | 65.7 | > 100 | > 100 | > 100 | 79.4 | – | > 100 | – | > 100 | – | – | – | – | > 100 | > 100 | 54.3 |
| CO/N=C/c1c(-c2ccc(Cl)cc2)c(/C=N/OC)n2c1sc1ccccc12 | > 100 | > 100 | > 100 | – | > 100 | > 100 | > 100 | > 100 | – | > 100 | > 100 | > 100 | > 100 | > 100 | > 100 | > 100 | > 100 | > 100 | – | > 100 |
| O=C1c2cccnc2-c2nccc3ccnc1c23 | 0.38 | 2.12 | 1.8 | 13 | 6.58 | 1.32 | 2.36 | 12.8 | 4.81 | 1.12 | – | 6.52 | 1.84 | 7.95 | 0.0784 | 0.465 | 4.64 | 3.75 | 0.894 | 3.45 |
| Clc1ccc(N=Cc2cc3cc(Br)ccc3nc2Cl)cc1 | > 50 | > 50 | > 50 | – | > 50 | > 50 | > 50 | > 50 | > 50 | > 50 | > 50 | – | 45.2 | – | > 50 | > 50 | 48.3 | > 50 | 38.4 | > 50 |
